According to ChEMBL document CHEMBL1127927, “Cycloheptimidazole based angiotensin II receptor antagonists. 4,5,6,7-tetrahydro-8-carboxymethylidene cycloheptimidazoles” (Bioorg Med Chem Lett, 1994):

Target: T1, Angiotensin II receptor (AT-1) type-1 (Rattus norvegicus, UniProt P29089+P25095)
T1 sequence (P29089 whole entry): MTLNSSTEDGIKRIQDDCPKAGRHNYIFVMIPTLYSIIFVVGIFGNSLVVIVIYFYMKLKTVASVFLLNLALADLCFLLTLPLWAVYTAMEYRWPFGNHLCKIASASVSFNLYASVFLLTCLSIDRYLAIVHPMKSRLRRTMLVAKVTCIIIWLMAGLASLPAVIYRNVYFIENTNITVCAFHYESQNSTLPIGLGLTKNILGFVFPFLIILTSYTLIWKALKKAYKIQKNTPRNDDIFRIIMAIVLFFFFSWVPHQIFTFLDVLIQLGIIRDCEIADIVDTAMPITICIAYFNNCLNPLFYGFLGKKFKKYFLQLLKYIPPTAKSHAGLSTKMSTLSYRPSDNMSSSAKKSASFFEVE
T1 sequence (P25095 whole entry): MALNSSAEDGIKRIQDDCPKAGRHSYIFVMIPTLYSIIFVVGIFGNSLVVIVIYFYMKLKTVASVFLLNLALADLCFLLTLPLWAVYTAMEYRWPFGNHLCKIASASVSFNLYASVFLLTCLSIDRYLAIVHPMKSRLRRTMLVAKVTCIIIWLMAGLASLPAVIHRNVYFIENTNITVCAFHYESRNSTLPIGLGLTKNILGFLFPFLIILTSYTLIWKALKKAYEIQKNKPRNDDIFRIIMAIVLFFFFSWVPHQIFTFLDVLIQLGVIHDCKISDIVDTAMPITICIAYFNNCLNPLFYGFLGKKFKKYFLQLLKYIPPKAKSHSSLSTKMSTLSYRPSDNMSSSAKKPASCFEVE
Experiment: Inhibition of binding of [125I]- Sar,Ileu-angiotensin to Angiotensin II receptor, type 1 in the radioligand binding assay using rat liver membrane preparations

CCc1nc2c(n1Cc1ccc(-c3ccccc3-c3nn[nH]n3)cc1)/C(=C/C(=O)O)CCCC2
IC50: 5.45 nM
